Reference: article PMC4291083, “Ex Vivo Characterization of a Novel Iodine-123-Labelled Aminomethylchroman as a Potential Agonist Ligand for SPECT Imaging of Dopamine D2/3 Receptors” (International Journal of Molecular Imaging, 2014)
Marks after values point to notes of the source that are not given here.

Assay: Biodistribution studies in rats
Format: in vivo, Wistar rats
Conditions: male rats
Experimental: [^123I]-1 (SA ≥ 37 MBq/nmol) was received after radiolabelling in an isotonic acetate (9% EtOH) buffer (pH 4.8). The solution was passed through a membrane filter (0.2 μm) and was diluted to the proper concentrations. Male Wistar rats (approximately 250 g body weight, obtained from Harlan/Charles River, Zeist, Netherlands) received an intravenous injection in the tail vein of approximately 3.7 MBq/0.4 mL buffer of [^123I]-1 under O2/CO2 anaesthesia. Distribution to the tissue was measured 15 min, 30 min, and 1, 2, 3, 4, and 24 h after the injection to determine the time course of uptake in several organs, including the brain. Four rats were killed at each time point via bleeding by heart puncture (to minimize contribution of blood activity) under O2/CO2 anaesthesia followed by cervical dislocation. Brain regions (cerebellum, frontal and prefrontal cortex, olfactory bulbs, pituitary, medulla with pons, midbrain, striatum, hypothalamus, hippocampus, and thalamus) and various peripheral tissues (heart, lung, liver, spleen, kidney, muscle, fat, and thymus) were quickly excised and weighted. The activity of [^123I] was assayed in a gamma counter, and data was corrected for decay and the amount of radioactivity was presented as percentage of the injected dose, multiplied by the body weight in kilograms, per gram tissue or blood. Selective uptake in the striatum was determined by calculating the ratio of radioactivity in the striatum in relation to that in the cerebellum, since the density of dopamine D2/3 receptor is negligible in this brain area in rats.

Oc1ccc2c(c1)O[C@@H](CNCc1ccc([123I])cc1)CC2 [[^123I]-1]
123I radioactivity, Fat (3 h after i.v. injection): 0.337 ± 0.065 %ID × kg/g
123I radioactivity, Fat (4 h after i.v. injection): 0.174 ± 0.056 %ID × kg/g
123I radioactivity, Fat (24 h after i.v. injection): 0.016 ± 0.005 %ID × kg/g
123I radioactivity, Frontal cortex (15 min after i.v. injection): 2.567 ± 1.933 %ID × kg/g
123I radioactivity, Frontal cortex (30 min after i.v. injection): 2.329 ± 0.904 %ID × kg/g
123I radioactivity, Frontal cortex (1 h after i.v. injection): 0.722 ± 0.061 %ID × kg/g
123I radioactivity, Frontal cortex (2 h after i.v. injection): 0.223 ± 0.028 %ID × kg/g
123I radioactivity, Frontal cortex (3 h after i.v. injection): 0.232 ± 0.095 %ID × kg/g
123I radioactivity, Frontal cortex (4 h after i.v. injection): 0.109 ± 0.057 %ID × kg/g
123I radioactivity, Frontal cortex (24 h after i.v. injection): 0.024 ± 0.002 %ID × kg/g
123I radioactivity, Hippocampus (15 min after i.v. injection): 0.826 ± 0.475 %ID × kg/g
123I radioactivity, Hippocampus (30 min after i.v. injection): 2.155 ± 0.675 %ID × kg/g
123I radioactivity, Hippocampus (1 h after i.v. injection): 0.866 ± 0.089 %ID × kg/g
123I radioactivity, Hippocampus (2 h after i.v. injection): 0.255 ± 0.040 %ID × kg/g
123I radioactivity, Hippocampus (3 h after i.v. injection): 0.230 ± 0.085 %ID × kg/g
123I radioactivity, Hippocampus (4 h after i.v. injection): 0.093 ± 0.059 %ID × kg/g
123I radioactivity, Hippocampus (24 h after i.v. injection): 0.014 ± 0.001 %ID × kg/g
123I radioactivity, Hypothalamus (15 min after i.v. injection): 1.335 ± 0.766 %ID × kg/g
123I radioactivity, Hypothalamus (30 min after i.v. injection): 1.699 ± 0.526 %ID × kg/g
123I radioactivity, Hypothalamus (1 h after i.v. injection): 0.747 ± 0.111 %ID × kg/g
123I radioactivity, Hypothalamus (2 h after i.v. injection): 0.218 ± 0.036 %ID × kg/g
123I radioactivity, Hypothalamus (3 h after i.v. injection): 0.233 ± 0.070 %ID × kg/g
123I radioactivity, Hypothalamus (4 h after i.v. injection): 0.114 ± 0.051 %ID × kg/g
123I radioactivity, Hypothalamus (24 h after i.v. injection): 0.027 ± 0.005 %ID × kg/g
123I radioactivity, Kidney (15 min after i.v. injection): 1.618 ± 0.774 %ID × kg/g
123I radioactivity, Kidney (30 min after i.v. injection): 1.735 ± 0.353 %ID × kg/g
123I radioactivity, Kidney (1 h after i.v. injection): 1.770 ± 0.302 %ID × kg/g
123I radioactivity, Kidney (2 h after i.v. injection): 1.081 ± 0.154 %ID × kg/g
123I radioactivity, Kidney (3 h after i.v. injection): 1.336 ± 0.175 %ID × kg/g
123I radioactivity, Kidney (4 h after i.v. injection): 1.005 ± 0.397 %ID × kg/g
123I radioactivity, Kidney (24 h after i.v. injection): 0.150 ± 0.026 %ID × kg/g
123I radioactivity, Midbrain (15 min after i.v. injection): 3.566 ± 4.660 %ID × kg/g
123I radioactivity, Midbrain (30 min after i.v. injection): 1.715 ± 0.577 %ID × kg/g
123I radioactivity, Midbrain (1 h after i.v. injection): 0.754 ± 0.040 %ID × kg/g
123I radioactivity, Midbrain (2 h after i.v. injection): 0.229 ± 0.046 %ID × kg/g
123I radioactivity, Midbrain (3 h after i.v. injection): 0.214 ± 0.062 %ID × kg/g
123I radioactivity, Midbrain (4 h after i.v. injection): 0.098 ± 0.059 %ID × kg/g
123I radioactivity, Midbrain (24 h after i.v. injection): 0.020 ± 0.003 %ID × kg/g
123I radioactivity, Muscle (15 min after i.v. injection): 0.412 ± 0.466 %ID × kg/g
123I radioactivity, Muscle (30 min after i.v. injection): 0.363 ± 0.049 %ID × kg/g
123I radioactivity, Olfactory b. (15 min after i.v. injection): 0.445 ± 0.439 %ID × kg/g
123I radioactivity, Olfactory b. (30 min after i.v. injection): 1.325 ± 0.402 %ID × kg/g
123I radioactivity, Olfactory b. (1 h after i.v. injection): 0.631 ± 0.036 %ID × kg/g
123I radioactivity, Olfactory b. (2 h after i.v. injection): 0.218 ± 0.025 %ID × kg/g
123I radioactivity, Olfactory b. (3 h after i.v. injection): 0.234 ± 0.087 %ID × kg/g
123I radioactivity, Olfactory b. (4 h after i.v. injection): 0.112 ± 0.043 %ID × kg/g
123I radioactivity, Olfactory b. (24 h after i.v. injection): 0.020 ± 0.001 %ID × kg/g
123I radioactivity, Pituitary (15 min after i.v. injection, only 1 sample): 1.401^* %ID × kg/g
123I radioactivity, Pituitary (30 min after i.v. injection): 3.367 ± 1.033 %ID × kg/g
123I radioactivity, Pituitary (1 h after i.v. injection): 1.561 ± 0.538 %ID × kg/g
123I radioactivity, Pituitary (2 h after i.v. injection): 0.918 ± 0.632 %ID × kg/g
123I radioactivity, Pituitary (3 h after i.v. injection): 0.548 ± 0.149 %ID × kg/g
123I radioactivity, Pituitary (4 h after i.v. injection): 0.307 ± 0.056 %ID × kg/g
123I radioactivity, Pituitary (24 h after i.v. injection): 0.082 ± 0.006 %ID × kg/g
123I radioactivity, Pons/medulla (15 min after i.v. injection): 1.188 ± 0.587 %ID × kg/g
123I radioactivity, Pons/medulla (30 min after i.v. injection): 1.486 ± 0.274 %ID × kg/g
123I radioactivity, Pons/medulla (1 h after i.v. injection): 0.761 ± 0.040 %ID × kg/g
123I radioactivity, Pons/medulla (2 h after i.v. injection): 0.237 ± 0.045 %ID × kg/g
123I radioactivity, Pons/medulla (3 h after i.v. injection): 0.229 ± 0.066 %ID × kg/g
123I radioactivity, Pons/medulla (4 h after i.v. injection): 0.106 ± 0.057 %ID × kg/g
123I radioactivity, Pons/medulla (24 h after i.v. injection): 0.017 ± 0.001 %ID × kg/g
123I radioactivity, Spleen (15 min after i.v. injection): 2.428 ± 1.971 %ID × kg/g
123I radioactivity, Spleen (30 min after i.v. injection): 1.270 ± 0.282 %ID × kg/g
123I radioactivity, Spleen (1 h after i.v. injection): 0.749 ± 0.093 %ID × kg/g
123I radioactivity, Spleen (2 h after i.v. injection): 0.266 ± 0.047 %ID × kg/g
123I radioactivity, Spleen (3 h after i.v. injection): 0.284 ± 0.092 %ID × kg/g
123I radioactivity, Spleen (4 h after i.v. injection): 0.166 ± 0.087 %ID × kg/g
123I radioactivity, Spleen (24 h after i.v. injection): 0.022 ± 0.003 %ID × kg/g
123I radioactivity, Striatum (15 min after i.v. injection): 1.231 ± 1.299 %ID × kg/g
123I radioactivity, Striatum (30 min after i.v. injection): 1.947 ± 0.666 %ID × kg/g
123I radioactivity, Striatum (1 h after i.v. injection): 0.779 ± 0.037 %ID × kg/g
123I radioactivity, Striatum (2 h after i.v. injection): 0.226 ± 0.034 %ID × kg/g
123I radioactivity, Striatum (3 h after i.v. injection): 0.232 ± 0.065 %ID × kg/g
123I radioactivity, Striatum (4 h after i.v. injection): 0.101 ± 0.051 %ID × kg/g
123I radioactivity, Striatum (24 h after i.v. injection): 0.027 ± 0.010 %ID × kg/g
123I radioactivity, Thalamus (15 min after i.v. injection): 1.556 ± 1.015 %ID × kg/g
123I radioactivity, Thalamus (30 min after i.v. injection): 1.978 ± 0.618 %ID × kg/g
123I radioactivity, Thalamus (1 h after i.v. injection): 0.779 ± 0.049 %ID × kg/g
123I radioactivity, Thalamus (2 h after i.v. injection): 0.234 ± 0.037 %ID × kg/g
123I radioactivity, Thalamus (3 h after i.v. injection): 0.279 ± 0.091 %ID × kg/g
123I radioactivity, Thalamus (4 h after i.v. injection): 0.114 ± 0.047 %ID × kg/g
123I radioactivity, Thalamus (24 h after i.v. injection): 0.033 ± 0.006 %ID × kg/g
